Results as given in US20060270640A1, “Method of preventing, medicating, and/or treating hypocalcemia of domestic mammal” (Mercian Corporation, priority 2004, published 2006).

Tests used:
[1] = Intravaginal 1,25-(OH)2D3 in raised cows: 1,25-(OH)2D3 concentration in plasma, RIA (Example 2); format: in vivo, cow
Description: (§1) Hereinafter, the present invention will further be described with reference to Examples and Comparative Example. However, the present invention is not intended to be limited to them by any means. In the examples described below, a 1,25-(OH)2D3 concentration in plasma was determined using a radioimmunoassay kit (1,25-(OH)2D RIA kit, Immunodiagnostic Systems Limited, UK). The Ca concentrations, inorganic phosphorus (iP) concentrations, and magnesium (Mg) concentrations in plasma and urine were determined by orthocresolphthalein complexone (O-CPC), molybdenum (Mo), and xylidyl blue methods, respectively. A creatinine concentration in urine was determined by a Jaffe method. Calcium (Ca), inorganic phosphorus (iP), and magnesium (Mg) concentrations in urine were indicated in the ratios relative to creatinine (Cre) (Ca/Cre, iP/Cre, and Mg/Cre, respectively).
(§2) For confirming the absorption in the vagina of 1,25-(OH)2D3 administered to the vaginal cavities of cows, biochemical changes of 1,25-(OH)2D3 and minerals in blood were observed after the intravaginal administration of 1,25-(OH)2D3 to cows.
(§3) Six Holstein cows (3 to 6 months olds, 97 to 118 kg in body weights) that were clinically healthy were raised and domesticated for at least 1 week in the same fence by providing them with feed (1.56 kg of grass, 0.55 kg of formula feed, and 1.44 kg of alfalfahey cube in dried forms) having a daily mineral intake of 21 g of Ca, 13 g of P, and 4 g of Mg that satisfies requirements stipulated by NRC (National Research Council) on a daily basis and free water drinking.
(§4) To each of five of the cows, 1,25-(OH)2D3 (crystal manufactured by Mercian Corporation dissolved in 99% ethanol to bring its concentration to 1 mg/mL and cryopreserved at −20° C. until just before use) was intravaginally administered at 1 μg per kg of body weight.
Intravaginal administration was performed using a 14-gauge, 64 mm-long cannula with an indwelling needle for injection (Surflo, Terumo Co. Ltd., Tokyo) and a plastic pump (Top Plastic Syringe, Top Surgical Taiwan Corporation, Taiwan). […]

[2] = Intravaginal 1,25-(OH)2D3 in raised cows: mineral (Ca, iP, Mg) concentrations in plasma (Example 2); format: in vivo, cow
Description: as §1, §2, §3, §4
Intravaginal administration was performed using a 14-gauge, 64 mm-long cannula with an indwelling needle for injection (Surflo, Terumo Co. Ltd., Tokyo) and a plastic pump (Top Plastic Syringe, Top Surgical Taiwan Corporation, Taiwan).
To the other cow, 3.0 mL of 99% ethanol was administered as a control.
A heparinized blood sample was collected from a jugular vein immediately before administration (0 hour) and at 2, 6, 12, 24, 48, 72, and 96 hours after administration.
The biochemical value of blood was indicated as a means±standard deviation. For observing the effect of the intravaginal administration of 1,25-(OH)2D3, repeated measures analysis of variance was used. When the effect was significant, a statistical test was conducted by the Dunnett's multiple comparison between the value at 0 hour and each value after administration. The significant difference was set to P<0.05.

[3] = 0 hour, intravaginal 1 μg/kg, n=5

C=C1/C(=C\C=C2/CCC[C@]3(C)[C@@H]([C@H](C)CCCC(C)(C)O)CC[C@@H]23)C[C@@H](O)C[C@@H]1O [1,25-(OH)2D3, 1,25-dihydroxyvitamin D3]
concentration at 6 h ([1]; female, Holstein, bovine, plasma, other: intravaginal, 6 hours after intravaginal 1 μg/kg, n=5, p<0.01 vs 0 hour): 1.97 ± 1.14 ng/mL
concentration at 0 h ([1]; female, Holstein, bovine, plasma, other: intravaginal, before administration (0 hour), intravaginal 1 μg/kg, n=5 raised cows, mean±SD): 0.0883 ± 0.0203 ng/mL
absorption from the vaginal wall of a cow ([1]; intravaginal 1 μg/kg, sudden rise in plasma at 2 hours): confirmed
Mg in plasma [2, 3]: 2.1 ± 0.1 mg/dL
iP in plasma [2, 3]: 7.3 ± 0.5 mg/dL
iP in plasma ([2]; 6 hours after intravaginal 1 μg/kg, P<0.05 vs 0 hour): 8.1 ± 0.8 mg/dL
iP in plasma ([2]; 24 hours (start of 24 to 96 hours) after intravaginal 1 μg/kg, P<0.01): 9.1 ± 0.7 mg/dL
Mg in plasma ([2]; 24 hours after intravaginal 1 μg/kg, P<0.01 vs 0 hour): 1.8 ± 0.1 mg/dL
Ca concentration in plasma, maximum value ([2]; 24 hours after intravaginal 1 μg/kg, n=5, significantly (P<0.01) high at 12 to 72 hours): 11.96 ± 0.7 mg/dL
Mg in plasma ([2]; 48 hours after intravaginal 1 μg/kg, P<0.01 vs 0 hour): 1.8 ± 0.1 mg/dL
iP in plasma ([2]; 96 hours (end of 24 to 96 hours) after intravaginal 1 μg/kg, P<0.01): 8.6 ± 0.6 mg/dL
Ca concentration in plasma ([2]; before administration, intravaginal 1 μg/kg, n=5): 10.4 ± 0.4 mg/dL
